Blank lines part the entries; values can stand above or below the molecule they belong to.
Columns and labels:
[1] = biological target: T1, PCFT (proton-coupled folate transporter, SLC46A1) (Gallus gallus, UniProt F1NJ67); experiment: cryo-EM structure at […] Å; assay type: cell-based
T1 sequence (F1NJ67 1-473): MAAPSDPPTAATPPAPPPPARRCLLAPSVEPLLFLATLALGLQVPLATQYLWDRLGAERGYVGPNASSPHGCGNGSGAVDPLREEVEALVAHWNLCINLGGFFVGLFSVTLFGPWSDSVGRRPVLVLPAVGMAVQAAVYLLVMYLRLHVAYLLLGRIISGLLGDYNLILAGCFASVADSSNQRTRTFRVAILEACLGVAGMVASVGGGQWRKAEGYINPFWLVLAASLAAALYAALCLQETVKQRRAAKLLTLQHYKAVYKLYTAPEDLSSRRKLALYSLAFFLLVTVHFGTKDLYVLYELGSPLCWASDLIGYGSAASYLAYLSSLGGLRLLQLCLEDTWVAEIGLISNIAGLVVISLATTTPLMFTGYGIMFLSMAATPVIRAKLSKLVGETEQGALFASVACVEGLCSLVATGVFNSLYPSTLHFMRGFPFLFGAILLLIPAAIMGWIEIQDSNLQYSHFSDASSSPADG

human PCFT (SLC46A1) = biological target: T2, human PCFT (SLC46A1) (Homo sapiens, UniProt Q96NT5); experiment: cell-based 3H-folic acid uptake at pH […] and […]
T2 sequence (Q96NT5 1-459): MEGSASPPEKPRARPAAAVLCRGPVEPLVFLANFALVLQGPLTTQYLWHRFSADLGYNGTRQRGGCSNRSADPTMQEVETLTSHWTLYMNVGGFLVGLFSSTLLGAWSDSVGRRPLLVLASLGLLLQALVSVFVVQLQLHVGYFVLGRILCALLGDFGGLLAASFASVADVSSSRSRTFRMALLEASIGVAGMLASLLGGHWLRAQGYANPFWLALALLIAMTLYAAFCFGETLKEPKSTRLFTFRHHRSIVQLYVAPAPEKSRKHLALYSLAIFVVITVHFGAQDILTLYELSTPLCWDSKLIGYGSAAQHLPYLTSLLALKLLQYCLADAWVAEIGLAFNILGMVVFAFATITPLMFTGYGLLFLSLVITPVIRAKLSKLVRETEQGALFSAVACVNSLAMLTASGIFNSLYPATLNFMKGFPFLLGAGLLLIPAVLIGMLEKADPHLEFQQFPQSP

[2] = biological target: T3, biotinylated chicken PCFT with C-terminal Avi-tag (Gallus gallus (UniProt E6Y8U5 sequence), biotin on the C-terminal Avi-tag); experiment: BLI
T3 chain: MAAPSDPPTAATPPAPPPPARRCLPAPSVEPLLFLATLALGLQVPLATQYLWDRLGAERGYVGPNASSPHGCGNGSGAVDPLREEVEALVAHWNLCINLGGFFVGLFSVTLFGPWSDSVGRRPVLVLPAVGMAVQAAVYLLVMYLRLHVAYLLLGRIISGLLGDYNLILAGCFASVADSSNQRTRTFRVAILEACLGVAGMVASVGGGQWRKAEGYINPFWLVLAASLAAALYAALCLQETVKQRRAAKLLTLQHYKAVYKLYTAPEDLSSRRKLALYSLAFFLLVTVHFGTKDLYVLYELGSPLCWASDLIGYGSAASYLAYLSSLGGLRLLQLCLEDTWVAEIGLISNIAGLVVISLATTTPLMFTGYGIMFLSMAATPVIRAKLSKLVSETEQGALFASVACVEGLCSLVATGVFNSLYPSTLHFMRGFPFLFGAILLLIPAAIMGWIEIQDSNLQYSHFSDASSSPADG

IC50 [1]: 900 nM
Molecule: Nc1nc2[nH]cc(CCc3ccc(C(=O)N[C@@H](CCC(=O)O)C(=O)O)cc3)c2c(=O)[nH]1 [PMX, pemetrexed]

Molecule: Nc1nc(=O)c2nc(CNc3ccc(C(=O)N[C@@H](CCC(=O)O)C(=O)O)cc3)cnc2[nH]1 [FA, folic acid]
cell-based 3H-folic acid uptake at pH 5.5 and 7.5 (human PCFT (SLC46A1)): The human and chicken homologues transport similar amounts of folic acid to each other and do so only at acidic pH

Kd [2]: 8 nM
B1: PCFT nanobody (high-affinity inhibitory nanobody from a naive llama library) (VHH)
VHH: QVQLVESGGGLVQPGGSLRLSCAASGFTFSRYWMYWVRQAPGKGPEWLSHMNPSGSDIKYTDSVKGRFTISRDNAKNTLYLQMNSLKPDDTAVYYCVADRRALGSPEYWGQGTQVTVSS

— publication PMC9990147 (Nature, 2021)
